Assay [1] has as its system substantia nigra pars compacta dopaminergic neurons. Put plainly: Ex vivo brain slice cytosolic oxidant stress, cyto-roGFP probe, two photon microscopy. The format is cell-based, mouse. As to conditions: bath application of 20 μM menadione. The procedure:
(§1) Animals and treatment paradigms: Male C57/B16 and TH-mitoroGFP (Guzman et al., 2010 Nature p. 696; incorporated by reference in its entirety) mice 5-8 wks of age were used for all imaging studies. In addition to the TH-mitoroGFP transgenic line, roGFP was virally delivered into the SNc of C57/B16 mice (either targeting cytosolic or mitochondrial compartments).
Two photon microscopy: Ex vivo slices of the dorsolateral striatum or SNc were prepared and redox status determined as previously described (Guzman et al., 2010 Nature p. 696; incorporated by reference in its entirety). […] The dynamic range of the probe was determined by perfusing 2 mM dithiothreitol (DTT) to fully reduce the probe and 200 μM aldrithiol to fully oxidize the probe; data presented as % relative oxidation. […]
Ex vivo redox measurements and two photon microscopy: Oxidant stress was assessed using the redox sensitive roGFP probe targeted either to the cytosol or mitochondrial matrix as previously described.^10 Slices were transferred to a recording chamber and continuously perfused with normal aCSF at 32-34° C. Fluorescence was measured using an Ultima Laser Scanning Microscope system (Bruker) with a DODT contrast detector to provide bright-field transmission images with an Olympus 60/0.9NA lens. […] Test measurements were calculated as relative oxidation. […]

Assay [2] shares this test system. Briefly: Ex vivo brain slice mitochondrial oxidant stress, mito-roGFP probe, two photon microscopy. The format is cell-based, mouse. Conditions: for effect on methamphetamine-induced dendritic mitochondrial stress / effect on methamphetamine-induced axonal (terminal) mitochondrial stress: 10 μM methamphetamine; for effect on methamphetamine-induced dendritic mitochondrial stress / effect on methamphetamine-induced axonal (terminal) mitochondrial stress / effect on levodopa-induced dendritic mitochondrial stress / effect on levodopa-induced axonal (terminal) mitochondrial stress / basal mitochondrial stress, monoamine oxidase inhibitor alone: clorgyline 5 μM; for effect on levodopa-induced dendritic mitochondrial stress / effect on levodopa-induced axonal (terminal) mitochondrial stress: 100 μM levodopa; for basal mitochondrial stress, monoamine oxidase inhibitor alone: dendrites and axons; for effect on methamphetamine- and levodopa-induced mitochondrial stress: slices pre-incubated with the MAO inhibitor. The procedure: as §1
Two photon microscopy: Ex vivo slices of the dorsolateral striatum or SNc were prepared and redox status determined as previously described (Guzman et al., 2010 Nature p. 696; incorporated by reference in its entirety). […] The dynamic range of the probe was determined by perfusing 2 mM dithiothreitol (DTT) to fully reduce the probe and 200 μM aldrithiol to fully oxidize the probe; data presented as % relative oxidation.
Stereotaxic surgery: PCR amplified roGFP, mitoroGFP and IMSroGFP inserts were subcloned into pFB-TH-SV40pA vector between EcoR1 and SalI sites. After sequence and expression verification, pFB-TH-roGFP vectors were packaged into rAAVs using serotype 9 with titers 2.1-×10^13 viral genome copies/ml (Virovek). Mice were anesthetized using an isoflurane precision vaporizer (Smiths Medical PM) and placed in a stereotaxic frame (David Kopf Instruments) with a Cunningham adaptor (Harvard Apparatus) to maintain anesthesia delivery throughout surgery. After exposing the skull, a small hole was drilled and 350 nL of AAV9-TH-cytosolic roGFP or AAV9-TH-mitoroGFP delivered via a glass micropipette (Drummond Scientific Company) pulled on a Sutter P-97 puller. The substantia nigra pars compacta (SNc) was targeted at the following coordinates: AP: −3.05, ML: 1.20, and DV −4.30. All surgeries were performed in wild-type mice. Experiments in animals with stereotaxic delivery of AAV viral vectors were performed after at least 10 days post-op.
Ex vivo slice preparation: Mice were terminally anesthetized with a mixture of ketamine (50 mg/kg)/xylazine (4.5 mg/kg) and transcardially perfused with ice cold modified artificial cerebrospinal fluid (aCSF) containing in mM: 124.0 NaCl, 3.0 KCl, 1.0 CaCl2, 2.0 MgCl2, 26 NaHCO3, 1.0 NaH2PO4, and 16.66 glucose. Once perfused the brain was rapidly removed and either saggital or coronal slices containing the dorsolateral striatum (275 μm thick) or the SNc (220 μm thick) sectioned using a vibratome (VT1200S Leica Microsystems). Slices were transferred to a holding chamber containing normal aCSF containing in mM: 124.0 NaCl, 3.0 KCl, 2.0 CaCl2, 1.0 MgCl2, 26 NaHCO3, 1.0 NaH2PO4, and 16.66 glucose and allowed at least 30-40 minutes to recover prior to experiments. All solutions were pH 7.4, 310-320 mOsm and continually bubbled with 95% O2/5% CO2.
Ex vivo redox measurements and two photon microscopy: Oxidant stress was assessed using the redox sensitive roGFP probe targeted either to the cytosol or mitochondrial matrix as previously described.^10 Slices were transferred to a recording chamber and continuously perfused with normal aCSF at 32-34° C. Fluorescence was measured using an Ultima Laser Scanning Microscope system (Bruker) with a DODT contrast detector to provide bright-field transmission images with an Olympus 60/0.9NA lens. A two-photon laser (Chameleon Ultra II, Coherent Inc.) tuned to 920 nm was used to excite roGFP. Time series image acquisitions of the roGFP probe were obtained with 60 frames obtained over ˜20 seconds with 0.195 μm×0.195 μm pixels and 10-12 μsec dwell times. The dynamic range of the probe was determined with 2 mM dithiothreitol, a reducing agent, and 200 μM aldrithiol, an oxidizing agent, which were sequentially perfused and t-series acquired with each to determine the maximal and minimal fluorescence intensity. Test measurements were calculated as relative oxidation. T-series were analyzed offline and fluorescence measurements in multiple regions of interest evaluated with background subtracted.^10 Final data is presented as percent of control (aCSF perfusion).

For assay [3], the system named is tyrosine hydroxylase positive cells in the SNc. Briefly: Methamphetamine 14 days plus 14 days withdrawal, stereology of tyrosine hydroxylase positive cells (Example 1). The format is in vivo, mouse. As to conditions: 1 mg/kg rasagiline, 30 min pretreatment; 5 mg/kg methamphetamine 14 days. The procedure: as §1
Stereology: Brains were fixed with 4% paraformaldehyde and serial coronal sections ([…]) were stained for tyrosine hydroxylase. Total number of tyrosine hydroxylase positive cells were counted in the SNc with the optical fractionator method (West et al., 1991 Anat Rec p. 482; Ilijic et al., 2011 Neurobiol Dis p. 364; incorporated by reference in their entireties).

Assay [4] deals with substantia nigra pars compacta dopaminergic neurons. Put plainly: Chronic in vivo methamphetamine administration for 28 days, stereology and striatal optical density (Example 2). Conditions: 5 mg/kg methamphetamine. The method, then: Immunohistochemistry and stereological analysis: Mice were terminally anesthetized with a mixture of ketamine (50 mg/kg)/xylazine (4.5 mg/kg) and transcardially perfused with 4% paraformaldehyde, post-fixed overnight and cryoprotected in 30% sucrose/phosphate buffered saline (PBS) at 4° C. until use. Serial coronal sections (60 μm thick) were collected throughout the midbrain and striatum. To stain for tyrosine hydroxylase the anti-tyrosine hydroxylase polyclonal antibody (Millipore) 1:2000 followed by goat anti-rabbit IgG biotin conjugated antibody (Millipore) 1:500 with normal goat serum blocking solution was used; after antibody incubation and rinsing with PBS, sections were incubated with ABC Elite Kit (Vector) and processed for diaminobenzidine reaction. Slices were mounted on slides, allowed to dry overnight, dehydrated in ascending alcohol concentrations and mounted with DPX mountant (Sigma). The estimated number of tyrosine hydroxylase positive (TH^+) cells were stereologically counted as previously described.^27 Slices from DAT-Cre X Ai14 mice expressing TdTomato in dopaminergic neurons were mounted on slides, allowed to dry, and mounted with Prolong Gold antifade mountant (Invitrogen). The estimated number of tdTomato expressing cells were stereologically counted. Sampling for stereological quantification was done using an Olympus BX41 microscope with motorized stage (Applied Scientific Instrumentation) and computerized stereology software (Stereologer). The SNc was delineated in each animal in every other section and cells counted using a 40×/0.65NA Olympus lens.
Drug application in ex vivo brain slice or iPSC experiments was performed via perfusion in aCSF.

For assay [5], the system named is human iPSC-derived dopamine neurons. Put plainly: iPSC redox measurements (roGFP, one photon microscopy). The format is cell-based. Conditions: for axonal mitochondrial stress in the intermembrane space: 100 μM levodopa vs control, IMS-roGFP. The source says:
Human iPSC culture and neural differentiation: The iPSC line was generated from skin fibroblasts of a healthy individual through retroviral expression of OCT4, SOX2, cMYC, KLF4 and previously clinically characterized.^23-25 Differentiation of iPSCs into midbrain dopaminergic neurons was done according to published protocols.^26 To help control neuralization variability, cells were passaged en bloc (size of 1-2 mm) between days 11 and 14, followed by plating onto poly-d-lysine (PDL)/laminin coated 10 cm dishes. Between days 25 and 30, neural blocks were passed by accutase treatment onto PDL/laminin coated culture dishes. Neuralization growth factors were withdrawn at day 40 and neurons were maintained in Neurobasal media (Life Technologies) containing Neurocult SM1 (Stemcell technologies).
iPSC redox measurements and one photon microscopy: Human iPSC-derived dopaminergic neurons were grown on 12 mm glass coverslips and imaged between 75 and 88 days post-differentiation. Two to four days before experimentation, dopaminergic neurons were infected with viral vectors targeting roGFP expression to mitochondrial matrix (AAV9-TH-mitoroGFP), mitochondrial intermembrane space (AAV9-TH-IMSroGFP),^17 or the cytosol (AAV9-TH-cytoroGFP)^7. Cultures were transferred to an imaging chamber mounted on an inverted epifluorescence microscope (Nikon TE300) with a 40×/1.35NA oil-immersion objective. The imaging chamber was superfused with aCSF at a flow rate of 1 ml/min. Imaging experiments were carried out at 31-33° C. Cells were illuminated by Polychrome V (TILL Photonics) and emissions were captured with a cooled CCD camera (Hamamatsu ImagEM) and Slidebook imaging software (Intelligent Imaging Innovations). Regions of interests in the dendrites or axon were selected for image analysis. […] Afterwards, neurons were perfused with 2 mM dithiothreitol for 20 min and then 100 μM aldrithiol for 20 min to obtain full roGFP dynamic range.^7

The mark [6] stands for this setting: rasagiline 10 μM, listed as rasagaline.
[7] abbreviates: 1 mg/kg rasagiline pretreatment.

Entries after “also recorded” stand apart in the source; their conditions may differ.

Compound `CC1=CC(=O)c2ccccc2C1=O` [menadione] showed a cyto-roGFP oxidation state in assay [1] of over 200 % above baseline.
Consider `COC(=O)C1=C(C)NC(C)=C([N+](=O)[O-])C1c1ccccc1C(F)(F)F` (stereo not shown) [Bay K 8644], for which the “axonal (terminal) mitochondrial stress” value in assay [2] (10 μM drug alone, relative to control (aCSF), dorsolateral striatum slices) is “increased axonal mitochondrial stress”.
In the case of `C#CCN[C@@H]1CCc2ccccc21` [rasagiline], the “effect on d-amphetamine-induced axonal mitochondrial stress” value in assay [2] (10 μM d-amphetamine, rasagiline 10 μM) is given as “prevented”. In assay [2] (rasagiline 10 μM), the “effect on methamphetamine-induced dendritic mitochondrial stress” value is “prevented”, the “effect on methamphetamine-induced axonal (terminal) mitochondrial stress” value (“effect on methamphetamine-induced axonal” for short) is “attenuated”, the “effect on levodopa-induced dendritic mitochondrial stress” value is on record as “prevented” and the “effect on levodopa-induced axonal (terminal) mitochondrial stress” value (“effect on levodopa-induced axonal” for short) is “attenuated”. Besides, the “basal mitochondrial stress, monoamine oxidase inhibitor alone” value in assay [2] (rasagiline 10 μM) is “Neither rasagiline nor clorgyline had any effect on basal mitochondrial oxidant stress; also recorded: had no effect on mitochondrial stress”. In assay [2] (setting [6]), the “effect on methamphetamine-induced axonal” value was “prevented” and the “effect on levodopa-induced axonal” value was “prevented”. Further, in assay [2], the “effect on methamphetamine- and levodopa-induced mitochondrial stress” value was “attenuated”. Besides, the “effect on methamphetamine-induced loss of TH+ cells” value in assay [3] is given as “prevented meth-induced loss of TH+ cells”. Further, the “effect on methamphetamine-induced loss of SNc neurons, Dat-Cre X Ai14 mice” value in assay [4] (1 mg/kg rasagiline 30 min pretreatment) is “significantly reduced degeneration in both the striatum and SNc; also recorded: prevented”. Besides, in assay [4] (setting [7]), the “effect on methamphetamine-induced loss of SNc axons in the striatum” value was “significantly reduced degeneration in both the striatum and SNc; also recorded: prevented”; the “effect on methamphetamine-induced loss of TH+ neurons” value was “prevented”.
For `[Cl-].[K+]` [KCl], the axonal mitochondrial stress result is recorded as “not significantly altered” in assay [2] (15 mM KCl alone) and “increased axonal mitochondrial stress” in assay [2] (30 mM KCl perfusion).
Consider `C#CCN(C)CCCOc1ccc(Cl)cc1Cl` [clorgyline], for which, in assay [2] (rasagiline 10 μM), the “effect on methamphetamine-induced dendritic mitochondrial stress” value is on record as “prevented”, the “effect on methamphetamine-induced axonal” value is recorded as “attenuated; also recorded: prevented rises in mitochondrial stress”, the “effect on levodopa-induced dendritic mitochondrial stress” value was “prevented” and the “effect on levodopa-induced axonal” value is “attenuated; also recorded: prevented rises in mitochondrial stress”. In addition, the “basal mitochondrial stress, monoamine oxidase inhibitor alone” value in assay [2] (rasagiline 10 μM) is listed as “Neither rasagiline nor clorgyline had any effect on basal mitochondrial oxidant stress; also recorded: had no effect on mitochondrial stress”. In addition, in assay [2], the “effect on methamphetamine- and levodopa-induced mitochondrial stress” value is “attenuated; also recorded: diminished the mitochondrial redox effects of methamphetamine and levodopa”.
As for `N[C@@H](Cc1ccc(O)c(O)c1)C(=O)O` [levodopa, L-3,4-dihydroxyphenylalanine], in assay [5] (100 μM levodopa vs basal), the “axonal mitochondrial stress (mitochondrial matrix roGFP)” value is on record as “increased axonal mitochondrial stress” and the “dendritic mitochondrial stress (mitochondrial matrix roGFP)” value is reported as “increased”. Moreover, the “axonal mitochondrial stress in the intermembrane space” value in assay [5] is “increased axonal mitochondrial stress in the intermembrane space”. In assay [5] (listed as Levodopa), the “axonal mitochondrial stress in the intermembrane space” value is “robustly increased oxidant stress within the intermembrane space”. Also, the “mitochondrial matrix oxidant stress in human dopaminergic neurons” value in assay [5] (levodopa) was “increased mitochondrial matrix oxidant stress in human dopaminergic neurons in a MAO-dependent manner”.

These data come from patent publication US11554103B2, “Compositions and methods to reduce pharmaceutical-induced toxicity” (priority 2016, dated 2023).
